From patent US20250041294A1, “Synergistic compositions for use in the treatment of cancer” (Sartar Therapeutics Oy, priority 2021, published 2025)

Tests used:
Format in all cases: cell-based
[1] = tested on: GIST882, SA4 and GOT3 cell lines; assay: Cell viability assay (96 well, CellTiter-Glo, 72 hours); conditions: for synergy with DNMDP (in words): FIGS. 7-8; for synergy with Bcl-family inhibitor A-1155463 (in words): FIG. 2, cell line not stated
Protocol: Cell viability assay. Cells were plated on 96 Well White/Clear Tissue Culture Treated Plate (FALCON, 353377) 24 hours prior to medium change with drugs. Viabilities of cells in different treatments were evaluated 72 hours after treatment incubation with CellTiter-Glo® Luminescent Cell Viability Assay (G7572, Promega) following manufacturer's instruction. Reagent and cells stabilized to room temperature. Reagent added 100 μl/well, shaken for 2 minutes at room temperature and incubated for 10 min at room temperature before measuring the luminescence by using Hidex Sence microplate reader (Hidex oy). Growth medium was used to exclude background signal from the results.

[2] = tested on: SA4 cell line; assay: Drug combination testing with concentration matrices, SynergyFinder 2.0; conditions: combination with anagrelide, seven-concentration matrices
Protocol: (§1) Drug combination testing with anagrelide and 12 selected drugs was performed as described above but with selected drugs using drug concentration matrices covering seven different concentrations with 3 replicate sample of each combinations and in two replicate assays. […] The tool implements synergy scoring with four major reference models: HSA, Loewe, Bliss and ZIP models. The degree of a drug combination effect can be readily visualized as a synergy landscape map over the dose matrix and ZIP synergy score.

[3] = tested on: GIST882 cell line; assay: as above; conditions: combination with anagrelide, seven-concentration matrices
Protocol: as §1

[4] = tested on: GOT3 cell line; assay: as above; conditions: combination with anagrelide, seven-concentration matrices
Protocol: as §1

[5] = tested on: GIST882, GOT3 and SA4 cell lines; assay: High throughput drug sensitivity and resistance test, average over cell lines (BAY2666605 combination); conditions: for Average DSS (aDSS): BAY2666605 combination, average of GIST882, SA4 and GOT3, aDSS higher than 3.0 = synergy; for synergy in high-throughput screening (in words): with anagrelide (GOT3, SA4) or BAY2666605 (GIST882, GOT3, SA4)
Method in brief: (§2)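 Compounds were plated in 10-fold dilutions spanning a 10,000-fold range, alone or with anagrelide (100 nM; SA4, GOT3) or BAY2666605 (40 nM; GIST882, SA4, GOT3). Viability was read by CellTiter-Glo after 72 h and normalized to DMSO and benzethonium chloride controls. Responses were expressed as DSS from four-parameter fits, and the single-agent DSS was subtracted from the combination DSS.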

[6] = tested on: GIST882 cell line; assay: High throughput drug sensitivity and resistance test (CellTiter-Glo, 72 hours); conditions: drug combined with BAY2666605 (40 nM) minus drug alone
Method in brief: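 GIST882 viability read by CellTiter-Glo after 72 h, normalized to 0.01% DMSO and 100 μmol/L benzethonium chloride. Compounds also combined with 40 nM BAY2666605. Four-parameter logistic curves; response as drug sensitivity score, with synergy as combination DSS minus single-agent DSS.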

[7] = tested on: GIST882, SA4, and GOT3 cell lines; assay: Drug combination testing with concentration matrices, SynergyFinder 2.0 (all three cell lines); conditions: drug concentration matrices and SynergyFinder 2.0, with or without Anagrelide
Protocol: Drug combination testing with anagrelide and 12 selected drugs was performed as described above but with selected drugs using drug concentration matrices covering seven different concentrations with 3 replicate sample of each combinations and in two replicate assays. Synergy was assessed using an R package SynergyFinder 2.0 (Ianevski A, et al. 2020). The tool implements synergy scoring with four major reference models: HSA, Loewe, Bliss and ZIP models. The degree of a drug combination effect can be readily visualized as a synergy landscape map over the dose matrix and ZIP synergy score.

[8] = tested on: SA4 cell line; assay: High throughput drug sensitivity and resistance test (CellTiter-Glo, 72 hours); conditions: SA4; for SA4 cell line: DSS(combo (BAY2666605))-DSS(drug): drug combined with BAY2666605 (40 nM) minus drug alone; for SA4 cell line: DSS(combo (anagrelide))-DSS(drug): drug combined with anagrelide hydrochloride (100 nM) minus drug alone
Method in brief: as §2

[9] = tested on: GOT3 cell line; assay: as above; conditions: GOT3; for GOT3 cell line: DSS(combo (BAY2666605))-DSS(drug): drug combined with BAY2666605 (40 nM) minus drug alone; for GOT3 cell line: DSS(combo (anagrelide))-DSS(drug): drug combined with anagrelide hydrochloride (100 nM) minus drug alone
Method in brief: as §2

[10] = tested on: GOT3 and SA4 cell lines; assay: High throughput drug sensitivity and resistance test, average over cell lines (anagrelide combination); conditions: anagrelide combination, average of SA4 and GOT3; aDSS higher than 3.0 = synergy
Method in brief: as §2

[11] = treated together with 3-hydroxy-anagrelide, FIGS. 5 and 6
[12] = treated together with Anagrelide, FIGS. 3 and 4

| Compound | synergy with DNMDP (in words) [1] | cell viability, combination result (in words) [1, 11] | cell viability, combination result (in words) [1, 12] | Average ZIP synergy score [2] | Average ZIP synergy score [3] | Average ZIP synergy score [4] | Average DSS (aDSS) [5] | synergy in high-throughput screening (in words) [5] | GIST882 cell line: DSS(combo (BAY2666605))-DSS(drug) [6] | efficacy in cell lines (in words) [7] | SA4 cell line: DSS(combo (BAY2666605))-DSS(drug) [8] | SA4 cell line: DSS(combo (anagrelide))-DSS(drug) [8] | GOT3 cell line: DSS(combo (BAY2666605))-DSS(drug) [9] | GOT3 cell line: DSS(combo (anagrelide))-DSS(drug) [9] | Average DSS (aDSS) [10] | synergy with Bcl-family inhibitor A-1155463 (in words) [1] | synergy with Bcl-family inhibitor A-1155463 (in words) ([1]; listed as cilostazol) |
| --- | --- | --- | --- | --- | --- | --- | --- | --- | --- | --- | --- | --- | --- | --- | --- | --- | --- |
| CN(C)CC#Cc1ccc(OCCCc2sc(N3CCc4cccc(C(=O)Nc5nc6ccccc6s5)c4C3)nc2C(=O)O)c(F)c1 [A-1155463] | showed synergy with DNMDP | verified the result | verified the result | 11.1 | 15.5 | 12.7 | 8.8 | synergistic | 23 | significant efficacy in cell lines only when they were administered with Anagrelide | −3.6 | 22.2 | 6.9 | 7.5 | 14.85 |  |  |
| Cc1c(-c2ccc(N3CCc4cccc(C(=O)Nc5nc6ccccc6s5)c4C3)nc2C(=O)O)cnn1CC12CC3CC(CC(C3)C1)C2 [A-1331852] |  |  |  | 11.1 | 9.6 | 11.6 | 10.2 | synergistic | 15.1 | significant efficacy in cell lines only when they were administered with Anagrelide | 12.6 | 14.9 | 2.8 | 3.6 | 9.25 |  |  |
| O=C1CCc2cc(OCCCCc3nnnn3C3CCCCC3)ccc2N1 [Cilostazol] |  |  |  |  |  |  |  |  |  |  |  |  |  |  |  | does not show synergy | not however achieved |
| CC1(C)CCC(c2ccc(Cl)cc2)=C(CN2CCN(c3ccc(C(=O)NS(=O)(=O)c4ccc(N[C@H](CCN5CCOCC5)CSc5ccccc5)c(S(=O)(=O)C(F)(F)F)c4)cc3)CC2)C1 [Navitoclax, navitoclax] | showed synergy with DNMDP | verified the result | verified the result | 8 | 11.7 | 2.4 | 17.0 | synergistic | 20.7 | significant efficacy in cell lines only when they were administered with Anagrelide | 28.5 | 17.4 | 1.7 | 2.6 | 10 |  |  |
